Patent EP0364584A1, “ANTIDOTE FOR ORGANIC PHOSPHORUS COMPOUND POISONING” (priority 1988, dated 1989)
Like-named read-outs stand apart in the source and are kept apart here.

Tests used:
[1] = target: T1, Azetylcholinesterase des menschlichen Bluts (Homo sapiens, UniProt P22303); experiment: Reactivation in vitro of erythrocyte cholinesterase inhibited by organophosphorus compounds (potentiometric titration); assay type: biochemical; details: reactivator 1.10^-4 M01/1, 25°C, pH 7,5
T1 construct: Cholinesterase des Grundgerüstes der Erythrozyten des menschlichen Bluts; from tissue; host or cells: human erythrocyte stroma (ghosts)
T1 sequence (P22303 other isoform, or with tags, fused parts or gaps): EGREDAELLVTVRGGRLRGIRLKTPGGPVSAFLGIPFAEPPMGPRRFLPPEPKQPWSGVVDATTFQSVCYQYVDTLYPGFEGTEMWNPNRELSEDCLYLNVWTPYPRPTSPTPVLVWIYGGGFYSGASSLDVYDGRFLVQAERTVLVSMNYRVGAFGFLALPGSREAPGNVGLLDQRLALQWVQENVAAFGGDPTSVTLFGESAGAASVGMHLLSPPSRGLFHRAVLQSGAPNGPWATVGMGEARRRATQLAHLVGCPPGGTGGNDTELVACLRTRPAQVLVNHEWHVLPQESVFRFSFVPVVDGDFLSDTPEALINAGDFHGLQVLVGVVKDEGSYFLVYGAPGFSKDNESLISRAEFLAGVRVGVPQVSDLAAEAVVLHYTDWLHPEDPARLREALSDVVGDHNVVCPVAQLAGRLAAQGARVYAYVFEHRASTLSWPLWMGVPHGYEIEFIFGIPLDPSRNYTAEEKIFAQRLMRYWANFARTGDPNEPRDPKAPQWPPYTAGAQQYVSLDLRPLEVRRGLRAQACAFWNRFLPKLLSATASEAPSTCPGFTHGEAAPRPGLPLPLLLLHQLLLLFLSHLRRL

[2] = Content of the drugs in blood and brain after intramuscular administration (Askew method); assay type: in vivo, Ratten; details: rat, im, Ratten; for concentration at 2 h: 2 St., read-out: Konzentration (µg/g) 2 St. (converted); for concentration at 5 min: read-out: Konzentration (µg/g) 5 min; for concentration at 20 min: read-out: Konzentration (µg/g) 20 min (converted); for concentration at 0.5 h: 30 min, read-out: Konzentration (µg/g) 30 min; for concentration at 1 h: I St., read-out: Konzentration (µg/g) I St.; for concentration at 10 min: IO min, read-out: Konzentration (µg/g) IO min (converted)
Description: Mit Hilfe der Methode von Askew (1956) wurde in der Dynamik der Gehalt des erfindungsgemäßen Arzneimittels im Blut und Gehirn der Tiere untersucht. Die Untersuchungen wurden im Vergleich zum bekannten Präparak TMB-4 vorgenommen. Die Geschwindigkeit des Eindringens beider Präparate ins Blut und deren Konzentration wurden bei der-intramuskulären Einführung in Dosen von 20 ..und 50 mg/kg und der Gehirnspiegel - in einer Dosis von 50 mg/kg bestimmt. […]
Es wurde festgestellt, daß die Präparate schnell (nach 5 min) von der Einführungsstelle ins Blut eindringen, dabei wurde unabhängig von der Prüfdosis der Präparate deren Maximalgehalt im Blut 20 min nach der Einführung beobachtet, zwar erhöhte die Vergrößerung der Dosis der Präparate bis 50 mg/kg wesentlich deren Konzentrationsniveau während der ganzen Beobachtungsfrist.
Die im Vergleich zu TMB-4 durchgeführten Untersuchungen haben ergeben, dass während der ersten Stunde der Blutgehalt und das Anwachsen der Konzentrationen beider Präparate gleich waren. […] Die Untersuchungsergebnisse sind in der Tabelle 3 angeführt.
Nach den Ergebnissen der durchgeführten Untersuchungen wurde festgestellt, dass das erfindungsgemässe Arz- neimittel bei der intramuskulären Einführung schnell ins Blut und Gehirn des Tieres eindringt und zum Unterschied von TMB-4 eine längere Zeit im 3lutstrom zirkuliert und von 5 min an bis 4 Stunden Beobachtung im Gehirn in bedeutend grösseren Mengen enthalten ist.

[3] = blood, Blut, Dosis 20 mg/kg intramuskulär
[4] = blood, Blut, Dosis 50 mg/kg intramuskulär
[5] = brain, Gehirn, Dosis 50 mg/kg intramuskulär

Compound: ON=Cc1cc[n+](CCC[n+]2ccc(C=NO)cc2)cc1 [TMB-4, Trimethylen-1,3-bis-(4-oxyiminomethylpyridinium)bromid, reference compound]
- activity at 100 µM ([1]; 0.5 h, pH 7, inhibited with O,O-Dimethyl-(2,2,2-trichlor-1-oxyäthyl) phosphonat, 0,5 h, read-out: Aktivität der Azetylcholinesterase in % (Reaktivationszeit in Stunden) 0,5): 40%
- activity at 100 µM ([1]; 0.5 h, pH 7, inhibited with O,O-Dimethyl-S-(1,2-dikarbäthoxyäthyl)-dithiophosphat, 0,5 h, read-out: Aktivität der Azetylcholinesterase in % (Reaktivationszeit in Stunden) 0,5): 27.4%
- activity at 100 µM ([1]; 1 h, pH 7, inhibited with O,O-Dimethyl-(2,2,2-trichlor-1-oxyäthyl) phosphonat, 1 h, read-out: Aktivität der Azetylcholinesterase in % (Reaktivationszeit in Stunden) 1): 51%
- activity at 100 µM ([1]; 1 h, pH 7, inhibited with O,O-Dimethyl-S-(1,2-dikarbäthoxyäthyl)-dithiophosphat, 1 h, read-out: Aktivität der Azetylcholinesterase in % (Reaktivationszeit in Stunden) 1): 43%
- activity at 100 µM ([1]; 2 h, pH 7, inhibited with O,O-Dimethyl-(2,2,2-trichlor-1-oxyäthyl) phosphonat, 2 h, read-out: Aktivität der Azetylcholinesterase in % (Reaktivationszeit in Stunden) 2): 64.2%
- activity at 100 µM ([1]; 2 h, pH 7, inhibited with O,O-Dimethyl-S-(1,2-dikarbäthoxyäthyl)-dithiophosphat, 2 h, read-out: Aktivität der Azetylcholinesterase in % (Reaktivationszeit in Stunden) 2): 52.9%
- concentration at 2 h [2, 3]: 0.41 µg/g
- concentration at 5 min [2, 3]: 3.6 µg/g
- concentration at 20 min [2, 3]: 4.85 µg/g
- concentration at 0.5 h [2, 3]: 4.35 µg/g
- concentration at 1 h [2, 3]: 2.75 µg/g
- concentration at 10 min [2, 3]: 4.42 µg/g
- concentration at 2 h [2, 4]: 2.42 µg/g
- concentration at 3 h ([2]; blood, Blut, Dosis 50 mg/kg intramuskulär, 3 St., read-out: Konzentration (µg/g) 3 St.): 1.95 µg/g
- concentration at 5 min [2, 4]: 16.6 µg/g
- concentration at 20 min [2, 4]: 18.4 µg/g
- concentration at 0.5 h [2, 4]: 15.1 µg/g
- concentration at 1 h [2, 4]: 11.5 µg/g
- concentration at 10 min [2, 4]: 21.1 µg/g
- concentration at 2 h [2, 5]: 0.34 µg/g
- concentration at 5 min [2, 5]: 0.86 µg/g
- concentration at 20 min [2, 5]: 2.32 µg/g
- concentration at 0.5 h [2, 5]: 2.28 µg/g
- concentration at 1 h [2, 5]: 1.5 µg/g
- concentration at 10 min [2, 5]: 0.98 µg/g
